What was measured:
Assay type in all cases: in vivo
[1] = test system: Echinochloa crus-galli (L.) P. Beauv. var. formosensis Ohwi; assay: Test for Herbicidal Effect in Flooding Treatment (#2), ECHDG at 2-2.5 leaf stage; details: for ECHDG (2-2.5L) #2 herbicidal effect (growth inhibition grade): flooding treatment at 2-2.5 leaf stage, dose 0.2 kg/ha, visual observation on day 21; for ECHDG (2-2.5L) #2 herbicidal effect (growth inhibition rating 0-5): flooding treatment #2, 2-2.5 leaf stage
Procedure: (#2) Test for Herbicidal Effect in Flooding Treatment: Styrol cups each having an opening diameter of 13 cm (about 130 cm^2) were respectively filled with muddy soil (500 ml). Water (about 300 ml) was mixed with the soil such that the soil was flooded. After the soil stood still for 24 hours, Echinochloa crus-galli (L.) P. Beauv. var. formosensis Ohwi was seeded. When the Echinochloa crus-galli (L.) P. Beauv. var. formosensis Ohwi grew to reach 2-2.5 leaf stage, chemical solutions were dropped on the entire surface of treatment sections, so that each section is treated with 1 ml of the respective chemical solution (a dose of 0.2 kg/ha). Each of the chemical solutions was prepared by dissolving associated one of the compounds of the present invention in acetone, followed by dilution with water containing Tween 80 g. After the treatment, the plants were grown in a glasshouse. On day 21, a survey was conducted on the herbicidal activity by visual observation, and evaluation was made according to the following criteria. 0: Growth inhibition effect is less than 10%. 1: Growth inhibition effect is equal to or greater than 10%, and less than 30%. 2; Growth inhibition effect is equal to or greater than 30%, and less than 50%. 3: Growth inhibition effect equal to or greater than 50%, and less than 70%. 4: Growth inhibition effect is equal to or greater than 70%, and less than 90%. 5: Growth inhibition effect is equal to or greater than 90%, or complete withering is achieved. ECHDG=Echinochloa crus-galli (L.) P. Beauv. var. formosensis Ohwi, MONVA=Monochoria vaginalis, SCIJU=Scirpus juncoides, CYMIC=Cyperus microiria. The herbicidal activity of the following comparative compounds A and B (the compounds disclosed Japanese Unexamined Patent Publication No. 2003-096059) were evaluated in a manner pursuant to Test Example 1. (#2).

[2] = test system: Echinochloa crus-galli (L.) P. Beauv. var. formosensis Ohwi; assay: Test for Herbicidal Effect in Flooding Treatment (#1), ECHDG; details: for ECHDG #1 herbicidal effect (growth inhibition grade): flooding treatment at seeding, dose 2 kg/ha, visual observation on day 21; for ECHDG #1 herbicidal effect (growth inhibition rating 0-5): flooding treatment #1
Procedure: (§1) (#1) Test for Herbicidal Effect in Flooding Treatment: Styrol cups each having an opening diameter of 8 cm (about 52 cm^2) were respectively filled with soil (45 ml) which had been passed through a sieve (2 mm). Water (about 115 ml) was mixed with the soil such that the soil was flooded. After the soil stood still for 24 hours, Monochoria vaginalis, Echinochloa crus-galli (L.) P. Beauv. var. formosensis Ohwi, Cyperus difformis (umbrella sedge), and Scirpus juncoides were seeded. Each of the compounds of the present invention was dissolved in acetone, and the obtained product was then diluted with water containing Tween 80®. Each of the resultant chemical solutions was dropped on the entire surface of an associated one of treatment sections, so that each section was treated with 1 ml of the respective chemical solution (a dose of 2 kg/ha). After the treatment, the plants were grown in a glasshouse. On day 21, a survey was conducted on the herbicidal activity by visual observation, and evaluation was made according to the following criteria. 0: Growth inhibition effect is less than 10%. 1: Growth inhibition effect is equal to or greater than 10%, and less than 30%. 2; Growth inhibition effect is equal to or greater than 30%, and less than 50%. 3: Growth inhibition effect equal to or greater than 50%, and less than 70%. 4: Growth inhibition effect is equal to or greater than 70%, and less than 90%. 5: Growth inhibition effect is equal to or greater than 90%, or complete withering is achieved. ECHDG=Echinochloa crus-galli (L.) P. Beauv. var. formosensis Ohwi, MONVA=Monochoria vaginalis, SCIJU=Scirpus juncoides, CYMIC=Cyperus microiria.

Scirpus juncoides = assay: Test for Herbicidal Effect in Flooding Treatment (#1), SCIJU; details: for SCIJU #1 herbicidal effect (growth inhibition grade): flooding treatment at seeding, dose 2 kg/ha, visual observation on day 21; for SCIJU #1 herbicidal effect (growth inhibition rating 0-5): flooding treatment #1
Procedure: as §1

SMILES	ECHDG (2-2.5L) #2 herbicidal effect (growth inhibition grade) [1]	ECHDG #1 herbicidal effect (growth inhibition grade) [2]	SCIJU #1 herbicidal effect (growth inhibition grade) (Scirpus juncoides)	ECHDG (2-2.5L) #2 herbicidal effect (growth inhibition rating 0-5) [1]	ECHDG #1 herbicidal effect (growth inhibition rating 0-5) [2]	SCIJU #1 herbicidal effect (growth inhibition rating 0-5) (Scirpus juncoides)
O=C(O)COc1cccc(F)c1CS(=O)(=O)c1ncc(Cl)s1 [Compound 1C-183]	3 (Growth inhibition effect equal to or greater than 50%, and less than 70%)	5 (Growth inhibition effect is equal to or greater than 90%, or complete withering is achieved)	5 (Growth inhibition effect is equal to or greater than 90%, or complete withering is achieved)	–	–	–
O=S(=O)(Cc1c(Cl)cccc1OC(F)(F)F)c1ncc(Br)s1 [Compound 1C-159]	5 (Growth inhibition effect is equal to or greater than 90%, or complete withering is achieved)	5 (Growth inhibition effect is equal to or greater than 90%, or complete withering is achieved)	5 (Growth inhibition effect is equal to or greater than 90%, or complete withering is achieved)	–	–	–
O=S(=O)(Cc1c(OCC(F)(F)F)cccc1C(F)(F)F)c1ncc(Cl)s1 [Compound 1C-56]	5 (Growth inhibition effect is equal to or greater than 90%, or complete withering is achieved)	5 (Growth inhibition effect is equal to or greater than 90%, or complete withering is achieved)	5 (Growth inhibition effect is equal to or greater than 90%, or complete withering is achieved)	–	–	–
CC(C)(c1c(F)cccc1OC(F)F)S(=O)(=O)c1ncc(Cl)s1 [Compound 1C-141]	4 (Growth inhibition effect is equal to or greater than 70%, and less than 90%)	5 (Growth inhibition effect is equal to or greater than 90%, or complete withering is achieved)	5 (Growth inhibition effect is equal to or greater than 90%, or complete withering is achieved)	–	–	–
O=S(=O)(Oc1cccc(F)c1C[S+]([O-])c1ncc(Cl)s1)C(F)(F)F (stereo not drawn) [Compound 1B-29]	–	–	–	5 (Growth inhibition effect is equal to or greater than 90%, or complete withering is achieved)	5 (Growth inhibition effect is equal to or greater than 90%, or complete withering is achieved)	5 (Growth inhibition effect is equal to or greater than 90%, or complete withering is achieved)
COc1cccc(Cl)c1CS(=O)(=O)c1ncc(Br)s1 [Compound 1C-151]	5 (Growth inhibition effect is equal to or greater than 90%, or complete withering is achieved)	5 (Growth inhibition effect is equal to or greater than 90%, or complete withering is achieved)	5 (Growth inhibition effect is equal to or greater than 90%, or complete withering is achieved)	–	–	–
[O-][S+](Cc1c(F)cccc1OC(F)(F)F)c1ncc(Cl)s1 (stereo not drawn) [Compound 1B-5]	–	–	–	5 (Growth inhibition effect is equal to or greater than 90%, or complete withering is achieved)	5 (Growth inhibition effect is equal to or greater than 90%, or complete withering is achieved)	5 (Growth inhibition effect is equal to or greater than 90%, or complete withering is achieved)
O=S(=O)(Cc1c(F)cccc1OC(F)(F)F)c1ncc(Cl)s1 [Compound 1C-48]	5 (Growth inhibition effect is equal to or greater than 90%, or complete withering is achieved)	5 (Growth inhibition effect is equal to or greater than 90%, or complete withering is achieved)	5 (Growth inhibition effect is equal to or greater than 90%, or complete withering is achieved)	–	–	–
CCS(=O)(=O)c1cccc(F)c1CS(=O)(=O)c1ncc(Cl)s1 [Compound 1C-174]	4 (Growth inhibition effect is equal to or greater than 70%, and less than 90%)	5 (Growth inhibition effect is equal to or greater than 90%, or complete withering is achieved)	5 (Growth inhibition effect is equal to or greater than 90%, or complete withering is achieved)	–	–	–
CC(c1c(F)cccc1OC(F)F)S(=O)(=O)c1ncc(Cl)s1 (racemic) [Compound 1C-140]	5 (Growth inhibition effect is equal to or greater than 90%, or complete withering is achieved)	5 (Growth inhibition effect is equal to or greater than 90%, or complete withering is achieved)	5 (Growth inhibition effect is equal to or greater than 90%, or complete withering is achieved)	–	–	–
O=S(=O)(Cc1ccccc1OC(F)F)c1ncc(Br)s1 [Compound 1C-152]	5 (Growth inhibition effect is equal to or greater than 90%, or complete withering is achieved)	5 (Growth inhibition effect is equal to or greater than 90%, or complete withering is achieved)	5 (Growth inhibition effect is equal to or greater than 90%, or complete withering is achieved)	–	–	–
[O-][S+](Cc1c(Cl)cccc1OC(F)(F)F)c1ncc(Cl)s1 (stereo not drawn) [Compound 1B-6]	–	–	–	5 (Growth inhibition effect is equal to or greater than 90%, or complete withering is achieved)	5 (Growth inhibition effect is equal to or greater than 90%, or complete withering is achieved)	5 (Growth inhibition effect is equal to or greater than 90%, or complete withering is achieved)
O=S(=O)(Cc1c(F)cc(OC(F)F)cc1F)c1ncc(Cl)s1 [Compound 1C-176]	5 (Growth inhibition effect is equal to or greater than 90%, or complete withering is achieved)	5 (Growth inhibition effect is equal to or greater than 90%, or complete withering is achieved)	5 (Growth inhibition effect is equal to or greater than 90%, or complete withering is achieved)	–	–	–
[O-][S+](Cc1c(OC(F)(F)C(F)(F)F)cccc1C(F)(F)F)c1ncc(Br)s1 (stereo not drawn) [Compound 1B-25]	–	–	–	5 (Growth inhibition effect is equal to or greater than 90%, or complete withering is achieved)	5 (Growth inhibition effect is equal to or greater than 90%, or complete withering is achieved)	5 (Growth inhibition effect is equal to or greater than 90%, or complete withering is achieved)
O=S(=O)(Cc1c(F)cccc1OC(F)(F)F)c1ncc(Br)s1 [Compound 1C-158]	5 (Growth inhibition effect is equal to or greater than 90%, or complete withering is achieved)	5 (Growth inhibition effect is equal to or greater than 90%, or complete withering is achieved)	5 (Growth inhibition effect is equal to or greater than 90%, or complete withering is achieved)	–	–	–
[O-][S+](Cc1c(OCC(F)(F)F)cccc1C(F)(F)F)c1ncc(Cl)s1 (stereo not drawn) [Compound 1B-11]	–	–	–	5 (Growth inhibition effect is equal to or greater than 90%, or complete withering is achieved)	5 (Growth inhibition effect is equal to or greater than 90%, or complete withering is achieved)	5 (Growth inhibition effect is equal to or greater than 90%, or complete withering is achieved)

— US20200060276A1, “THIAZOLE COMPOUND AND HERBICIDE” (OAT Agrio Co., Ltd., priority 2017, published 2020)
